Columns and labels:
[1] = Safety pharmacology: effects on the respiratory system in rats; assay type: in vivo; details: single oral 100, 300 and 600 mg/kg
Experimental: Effects on the Respiratory System in Rats (Study no. YL18404). Four groups of eight male rats were given a single oral administration of STP0404 at doses of 100, 300 and 600 mg/kg. STP0404 was administered as a suspension in 0.5% MC in a volume of 10 mL/kg. […] Measurements were conducted at pre-dosing and 0.5, 1, 3, 6 12 and 24 hrs post-dosing, and respiratory rate, tidal volume and minute volume were investigated (INA Research, Japan). Effects on the Central Nervous System in Rats (Study no. YL18405). Four groups of six male rats were given a single oral administration of STP0404 at doses of 0 (vehicle), 100, 300 and 600 mg/kg. The test article was administered as a suspension in 0.5% MC in a volume of 10 mL/kg. […] Blinded observations were conducted pre-dosing and 0.5, 1, 3, 6, 12 and 24 hrs post-dosing on rats body temperature, pupil size, landing foot-splay and grip strength in functional observational battery. Effects on the Cardiovascular System in Dogs (Study no. YL18406). STP0404 at dose levels of 30, 60 and 90 mg/kg were administered orally (by capsules) to four male Beagle dogs in a design with 7-day intervals between doses. Heart rate, blood pressure (systolic, diastolic and mean) and electrocardiographic (ECG) parameters (PR, QT and QTc intervals and QRS duration) were evaluated at pre-dosing and 0.5, 1, 2, 4, 8 and 24 hrs post-dosing. […]

[2] = tested on: HIV-1_89.6 passage 14 viral population (Y99H and A128T); experiment: Susceptibility of STP0404-selected viral population, passage 14, in CEMx174 cells; assay type: cell-based; details: passage 14 viral population (Y99H and A128T) vs wild type HIV-1_89.6
Experimental: CEM x174 cells infected with HIV primary isolate 89.6 were cultured in the presence of STP0404 at the concentration of IC90 determined earlier. At each passage, cells from original culture in the presence of inhibitor (0.75x10^6 cells) were mixed with equal amount of no-drug control cells to propagate, and viral replication was monitored by the production of p24 antigen in the supernatant. […] The population of drug-induced mutations at each passage mentioned above was determined by sequencing of at least 10 resulting transformants.
CEM x174 cells were infected with cell-free viral supernatant collected during virus resistance assays above. […] The viral stocks were normalized by the amount of p24 capsid antigen, determined to infect CEMx174 cells at approximately 10% of populations (10,000 pg / 10^6 cells). […] Cell-free supernatants were measured for p24 antigen production 5 days post-infection. p89.6 plasmid was applied for Quickchange kit (Invitrogen) to create Y99H single, A128T single, Y99H/A128T double mutants as well as two natural variants (A124N and T125A), and these 89.6 variant viruses were generated by transfecting 293T cells and culturing the produced viruses in CEMx174 cells. The IC50 of STP0404 against respective viruses were analyzed using GraphPad Prism (Version 9) and presented as means ± S.D. of triplicates. […]

[3] = Hepatocyte stability determination; assay type: in vitro ADME; details: monkey and human hepatocytes
Experimental: Incubation was conducted in 96-well cell culture plate format. The plates were labeled as T0, T15, T30, T60, T90, T0-MC, T90-MC and Blank, respectively. All plates were pre-warmed for 10 to 20 mins at 37±1°C in an incubator of 5% CO2 and saturated humidity. The vials of cryopreserved SD rat, beagle dog, cynomolgus monkey and human hepatocyte were removed from the liquid nitrogen container and immediately immersed in a water bath (the setting temperature was 37°C) for approximately 90 secs to allow the ice pellets melted. The melted ice pellets were transferred into pre-warmed 40 mL of Thawing Medium tubes mixed well by gently inverting the tubes then centrifuged at 100 ×g for 5 mins at room temperature. The supernatants were discarded and cell pellets were re-suspended by adding appropriate volumes of pre-warmed WEM. The cells viability of each species was determined using Trypan Blue exclusion. The viabilities of rat, dog, cynomolgus and human hepatocytes were 89.0%, 94.3%, 88.0% and 91.8%, respectively. Cells were finally diluted to 0.625×10^6 cells/mL with pre-warmed WEM. At each corresponding time point, the sample reactions were stopped by adding 150 μL of acetonitrile containing 200 ng/mL tolbutamide and 200 ng/mL labetalol as internal standards. All sample plates were thoroughly mixed and centrifuged at 3220 ×g for 20 mins. […]

[4] = Plasma stability determination; assay type: in vitro ADME, human, monkey, dog, rat and mouse; details: all tested species; 5 μM, 60 mins, remaining percentage
Experimental: STP0404 was incubated with human, monkey, dog, rat and mouse plasma. These incubations were carried out at a test concentration of 5 μM with an incubation period of 60 mins. Samples of human, monkey, dog, rat and mouse were taken at 0, 15, 30, 45, 60 mins. And stop the reaction by taking 50 μL aliquots to 400 μL acetonitrile with internal standard. Propantheline was used as positive control for human, monkey and mouse plasma and mevinolin as the positive control for dog and rat plasma. The remaining percentage was tested. This test was conducted by a fee to service through Pharmaron (Beijing, China).

In the case of Cc1nc2c(c(C)c(C)n2Cc2cnn(C)c2)c(-c2ccc(Cl)cc2)c1[C@H](OC(C)(C)C)C(=O)O [STP0404], the “safety pharmacology concerns, respiratory system” value [1] is reported as “did not induce any safety pharmacology concerns”, the IC50 fold increase [2] is reported as 61.4 fold and the “metabolic stability in hepatocytes (in words)” value [3] is reported as “much longer metabolic stability”. It also gave a plasma stability [4] of roughly 100%.
